According to paper PMC12316777:

How the values were obtained:
[1] = target: T1, SARS-CoV-2 nsp13 (helicase) (Severe acute respiratory syndrome coronavirus 2, UniProt P0DTD1); assay: FRET DNA duplex unwinding assay; format: biochemical; details: for IC50: 20 nM nsp13, n = 3, read-out: IC50 (± SD) DNA unwinding
[2] = target: T1, SARS-CoV-2 nsp13 (helicase); assay: ATPase assay (phosphate release); format: biochemical; details: for IC50: 20 nM nsp13, n = 3, read-out: IC50 (± SD) ATPase
SARS-CoV-2 nsp13 [3] = target: T2, SARS-CoV-2 nsp13 (Severe acute respiratory syndrome coronavirus 2, UniProt P0DTD1); assay: BODIPY FL ATP-γ-S fluorescence assay (ATP binding); details: for fluorescence intensity of BODIPY FL ATP-γ-S with nsp13: 1 μM compound, 10 min pre-incubation, 10 nM BODIPY FL ATP-γ-S
SARS-CoV-2 nsp13 [4] = target: T2, SARS-CoV-2 nsp13; assay: Metal displacement analysis (equilibrium dialysis, ICP-MS), nsp13; format: binding
Experimental: Nsp13 also consists of 3 zinc finger sites at its N-terminal zinc-binding domain. Therefore, we first investigated whether Au(I) could interact with zinc fingers in nsp13 by equilibrium dialysis.
Au(I) binding and Zn(II) release on nsp10 and nsp14 were determined by Inductively Coupled Plasma Mass Spectrometry (ICP-MS) on Agilent 7700 × ICP-MS (Agilent Technologies). […] Dialysis tubes loaded with 100 μL Zn-bound proteins (5 μM for nsp14 and nsp13 and 20 μM for nsp10) or protein buffer were placed into 50 mL dialysis buffer in the presence of different concentrations of Au(I) compounds (as Au(PEt3)Cl) with mild shaking at 18 °C overnight. The protein concentration was measured by bicinchoninic acid (BCA) assay, and the metal concentration of solution both inside and outside the dialysis tubes was determined by ICP-MS.

SARS-CoV-2 nsp13 [5] = target: T2, SARS-CoV-2 nsp13; assay: EMSA of nsp13 binding to dsDNA substrate; details: 2 μM nsp13, 0, 2, 10 and 20 μM compound, 2 h, 100 nM DNA
Experimental: We preincubated 2 μM nsp13 with different concentrations (0, 2, 10 and 20 μM) of Au(PEt3)Cl for 2 h at room temperature, then incubated with 100 nM DNA substrate to form the protein-dsDNA complex.
EMSA for investigating the binding between nsp13 and DNA substrates was performed as previously reported. Briefly, 2 μM nsp13 was incubated with Au(PEt3)Cl in a dose-dependent manner in 20 μL binding buffer (20 mM Tris pH 7.4, 20 mM NaCl, 1 mM TCEP, 5 mM MgCl2) for 2 h at 25 °C. Then, incubated per sample at 37 °C with 100 nM dsDNA. After 15 min incubation, the reaction was stopped by 4 μL loading buffer (50% glycerol, 0.02% bromophenol blue). The reaction mixture was electrophoresed in 8% native-polyacrylamide gels at 150 V for 1 h. The gel was stained by GelRed (Sigma Aldrich) for 10 min and images were captured by iBright™ CL750 Imaging System (Thermo Fisher Scientific).
Fig. S3 EMSA image of the binding between DNA substrate and nsp13 in the presence of increasing
amounts of Au(I)- based compound (as Au(PEt3)Cl).
(1 picture or pasted object on this page, not shown here)

[6] = test system: SARS-CoV-2 variants Omicron BA.5.2 and XBB in VeroE6-TMPRSS2 cells; format: cell-based

Compound	IC50 [1] [nM]	inhibition of DNA unwinding activity ([1]; 50 mol equiv of compound)	IC50 [2] [nM]	inhibition of ATPase activity ([2]; 50 mol equiv of compound)	fluorescence intensity of BODIPY FL ATP-γ-S with nsp13 (SARS-CoV-2 nsp13 [3])	other results
O=S(=O)([O-])[S-].O=S(=O)([O-])[S-].[Au+].[Na+].[Na+].[Na+] [Na3Au(S2O3)2, gold(I) sodium thiosulfate]	380 ± 50	more than 50%	250 ± 80	more than 50%	decreased	
[Cl][Au] [AuCl, gold(I) chloride]	200 ± 30	more than 50%	200 ± 10	more than 50%	decreased	
CC[PH](CC)(CC)[Au][S]CC(NC(=O)CCC(N)C(=O)O)C(=O)NCC(=O)O [Au-GSH, ((R)-2-((S)-4-amino-4-carboxybutanamido)-3-((carboxymethyl)amino)-3-oxopropyl)thiolate)-(triethyl-phosphine)-gold(I)]						DNA unwinding enzymatic activity remaining ([1]; 50 mol equiv of compound): 41.67%; ATPase enzymatic activity remaining ([2]; 50 mol equiv of compound): 51.33%
(1-(adamantan-1-yl)thiourea)-(triethylphosphine)-gold(I) [Au-amantadine]	720 ± 130		1150 ± 230		decreased	
CCP(CC)CC.[Au+].[Cl-] [Au(PEt3)Cl, chloro(triethylphosphine)gold(I)]	330 ± 40	more than 50%	400 ± 90	more than 50%	decreased	Au(I) bound to nsp13 (SARS-CoV-2 nsp13 [4]; equilibrium dialysis, ICP-MS): ca. 2.97 ± 0.20 mol equiv; Zn(II) release from nsp13 (SARS-CoV-2 nsp13 [4]; equilibrium dialysis, ICP-MS): ca. 2.88 ± 0.18 mol equiv; maximal binding capacity (Bmax), nsp13 (SARS-CoV-2 nsp13 [4]; nonlinear fit to specific binding plot): 3.33 ± 0.11; Kd (SARS-CoV-2 nsp13 [4]; nonlinear fit to specific binding plot, read-out: dissociation constant (Kd), nsp13): 2290 ± 220 nM; fluorescence intensity of BODIPY FL ATP-γ-S with nsp13, dose dependence (SARS-CoV-2 nsp13 [3]; 0.1, 0.2, 0.5 and 1 μM): decreased in a dose-dependent manner; effect on binding of nsp13 to dsDNA (SARS-CoV-2 nsp13 [5]): did not disrupt
CC(=O)OC[C@H]1O[C@@H]([S-])[C@H](OC(C)=O)[C@@H](OC(C)=O)[C@@H]1OC(C)=O.CCP(CC)CC.[Au+] [auranofin]						maximum reduction of viral load in the cell culture supernatant [6]: 4 − 6 log10 units
